Laboratory results taken from the NIST ThermoML archive (doi:10.1016/j.jct.2019.02.025).

Key:
[1] = for mass density / kinematic viscosity: 101.33 kPa, Liquid; for mass density: Vibrating tube method; for surface tension liquid-gas / kinematic viscosity: Surface laser light scattering (SLLS)
[2] = refractive index (Na D-line) (dimensionless); settings: 101.33 kPa, Liquid, Standard Abbe refractometry

CCCCCCCCCCCC [dodecane]
[1]
Settings | kinematic viscosity [m2/s] | mass density [kg/m3] | surface tension liquid-gas [mN/m]
293.15 K | – | 748.81 | –
298.16 K | 1.76e-06 | – | 23.37
303.15 K | – | 741.42 | –
313.15 K | – | 734.08 | –
323.15 K | – | 726.74 | –
323.23 K | 1.25e-06 | – | 21.9
333.15 K | – | 719.38 | –
343.15 K | – | 711.32 | –
348.21 K | 9.24e-07 | – | 20.09
353.15 K | – | 704.62 | –
363.15 K | – | 697.21 | –
373.15 K | – | 689.75 | –
373.29 K | 7.24e-07 | – | 18.02
383.15 K | – | 682.25 | –
393.15 K | – | 674.68 | –
398.25 K | 5.87e-07 | – | 16.1
403.15 K | – | 667.04 | –
413.15 K | – | 659.32 | –
423.15 K | – | 651.53 | –
423.26 K | 4.89e-07 | – | 14.25
433.15 K | – | 643.6 | –
443.15 K | – | 635.55 | –
448.27 K | 4.16e-07 | – | 12.32
453.15 K | – | 627.38 | –
463.15 K | – | 619.09 | –
473.15 K | – | 610.6 | –

CCCCCCCCCC(=O)OCC [ethyl decanoate]
Settings | kinematic viscosity [m2/s] | mass density [kg/m3] | refractive index | surface tension liquid-gas [mN/m]
[1], 293.15 K | – | 864.08 | – | –
[1], 298.13 K | 2.2e-06 | – | – | 23.87
[1], 303.15 K | – | 855.82 | – | –
[1], 313.15 K | – | 847.62 | – | –
[1], 323.11 K | 1.59e-06 | – | – | 22.57
[1], 323.15 K | – | 839.41 | – | –
[1], 333.15 K | – | 830.71 | – | –
[1], 343.15 K | – | 822.79 | – | –
[1], 348.1 K | 1.22e-06 | – | – | 21.38
[1], 353.15 K | – | 814.9 | – | –
[1], 363.15 K | – | 806.72 | – | –
[1], 373.15 K | – | 798.5 | – | –
[1], 373.17 K | 9.55e-07 | – | – | 19.81
[1], 383.15 K | – | 790.26 | – | –
[1], 393.15 K | – | 781.97 | – | –
[1], 398.16 K | 7.48e-07 | – | – | 18.26
[1], 403.15 K | – | 773.63 | – | –
[1], 413.15 K | – | 765.29 | – | –
[1], 423.12 K | 6.18e-07 | – | – | 16.8
[1], 423.15 K | – | 756.81 | – | –
[1], 433.15 K | – | 748.26 | – | –
[1], 443.15 K | – | 739.7 | – | –
[1], 448.1 K | 4.92e-07 | – | – | 14.86
[1], 453.15 K | – | 731.01 | – | –
[2], 278.15 K | – | – | 1.43213 | –
[2], 283.15 K | – | – | 1.43 | –
[2], 288.15 K | – | – | 1.42789 | –
[2], 293.15 K | – | – | 1.42577 | –
[2], 298.15 K | – | – | 1.42366 | –
[2], 303.15 K | – | – | 1.42155 | –
[2], 308.15 K | – | – | 1.41944 | –
[2], 313.15 K | – | – | 1.41729 | –
[2], 318.15 K | – | – | 1.41512 | –
[2], 323.15 K | – | – | 1.41297 | –
[2], 328.15 K | – | – | 1.41084 | –
[2], 333.15 K | – | – | 1.40873 | –
[2], 338.15 K | – | – | 1.40661 | –
[2], 343.15 K | – | – | 1.40451 | –
[2], 348.15 K | – | – | 1.40241 | –
[2], 353.15 K | – | – | 1.40034 | –
[2], 358.15 K | – | – | 1.39826 | –

CCCCCCCCCCCC(=O)OCC [ethyl dodecanoate]
Settings | kinematic viscosity [m2/s] | mass density [kg/m3] | refractive index | surface tension liquid-gas [mN/m]
[1], 293.15 K | – | 862 | – | –
[1], 298.03 K | 3.11e-06 | – | – | 26.84
[1], 303.15 K | – | 853.15 | – | –
[1], 313.15 K | – | 845.31 | – | –
[1], 323.15 K | 1.98e-06 | 838.31 | – | 24.54
[1], 333.15 K | – | 830.53 | – | –
[1], 343.15 K | – | 822.74 | – | –
[1], 348.25 K | 1.44e-06 | – | – | 22.85
[1], 353.15 K | – | 814.95 | – | –
[1], 363.15 K | – | 807.16 | – | –
[1], 373.15 K | – | 799.37 | – | –
[1], 373.4 K | 1.09e-06 | – | – | 21.17
[1], 383.15 K | – | 791.55 | – | –
[1], 393.15 K | – | 783.72 | – | –
[1], 398.14 K | 8.72e-07 | – | – | 19.32
[1], 403.15 K | – | 775.85 | – | –
[1], 413.15 K | – | 767.94 | – | –
[1], 423.13 K | 7.19e-07 | – | – | 17.83
[1], 423.15 K | – | 759.99 | – | –
[1], 433.15 K | – | 751.6 | – | –
[1], 443.15 K | – | 744.05 | – | –
[1], 448.22 K | 5.91e-07 | – | – | 15.95
[1], 453.15 K | – | 735.97 | – | –
[2], 278.15 K | – | – | 1.43791 | –
[2], 283.15 K | – | – | 1.43583 | –
[2], 288.15 K | – | – | 1.43375 | –
[2], 293.15 K | – | – | 1.43169 | –
[2], 298.15 K | – | – | 1.42961 | –
[2], 303.15 K | – | – | 1.42755 | –
[2], 308.15 K | – | – | 1.42547 | –
[2], 313.15 K | – | – | 1.42335 | –
[2], 318.15 K | – | – | 1.42125 | –
[2], 323.15 K | – | – | 1.41915 | –
[2], 328.15 K | – | – | 1.41707 | –
[2], 333.15 K | – | – | 1.41501 | –
[2], 338.15 K | – | – | 1.41295 | –
[2], 343.15 K | – | – | 1.4109 | –
[2], 348.15 K | – | – | 1.40886 | –
[2], 353.15 K | – | – | 1.40684 | –
[2], 358.15 K | – | – | 1.40479 | –

CCCCCCC(=O)OCC [ethyl heptanoate]
Settings | kinematic viscosity [m2/s] | mass density [kg/m3] | refractive index | surface tension liquid-gas [mN/m]
[1], 293.15 K | – | 869.42 | – | –
[1], 298.25 K | 1.33e-06 | – | – | 24.88
[1], 303.15 K | – | 860.36 | – | –
[1], 313.15 K | – | 851.32 | – | –
[1], 323.03 K | 9.55e-07 | – | – | 23.07
[1], 323.15 K | – | 842.26 | – | –
[1], 333.15 K | – | 833.07 | – | –
[1], 343.15 K | – | 824.1 | – | –
[1], 347.8 K | 7.3e-07 | – | – | 20.71
[1], 353.15 K | – | 814.99 | – | –
[1], 363.15 K | – | 805.81 | – | –
[1], 372.91 K | 5.73e-07 | – | – | 18.61
[1], 373.15 K | – | 796.55 | – | –
[1], 383.15 K | – | 787.24 | – | –
[1], 393.15 K | – | 777.81 | – | –
[1], 397.51 K | 4.7e-07 | – | – | 16.27
[1], 403.15 K | – | 768.3 | – | –
[1], 413.15 K | – | 758.65 | – | –
[1], 421.88 K | 3.95e-07 | – | – | 14.43
[1], 423.15 K | – | 748.89 | – | –
[1], 433.15 K | – | 738.95 | – | –
[1], 443.15 K | – | 728.84 | – | –
[1], 448 K | 3.39e-07 | – | – | 12.31
[2], 278.15 K | – | – | 1.42006 | –
[2], 283.15 K | – | – | 1.41784 | –
[2], 288.15 K | – | – | 1.41562 | –
[2], 293.15 K | – | – | 1.41341 | –
[2], 298.15 K | – | – | 1.41119 | –
[2], 303.15 K | – | – | 1.40896 | –
[2], 308.15 K | – | – | 1.40673 | –
[2], 313.15 K | – | – | 1.40445 | –
[2], 318.15 K | – | – | 1.40216 | –
[2], 323.15 K | – | – | 1.39988 | –
[2], 328.15 K | – | – | 1.39761 | –
[2], 333.15 K | – | – | 1.39535 | –
[2], 338.15 K | – | – | 1.39311 | –
[2], 343.15 K | – | – | 1.39088 | –
[2], 348.15 K | – | – | 1.38866 | –
[2], 353.15 K | – | – | 1.38645 | –
[2], 358.15 K | – | – | 1.38421 | –
